# Source: US20100279997A1, “ANALGESIC THAT BINDS FILAMIN A” (priority 2009, published 2010)
# Biological target: T1, μ opiate receptor (MOR) (Rattus norvegicus, UniProt P33535)
# T1 construct: from tissue; host or cells: striatal tissue (membrane preparation)
# Assay: MOR agonist activity, [35S]GTPγS binding assay using striatal membranes
# Type: biochemical
# Settings: for [35S]GTPγS binding to Gαo, FLNA-binding compound as agonist 0.1 μM: 0.1 μM compound; for [35S]GTPγS binding to Gαo, FLNA-binding compound as agonist 0.1 μM / [35S]GTPγS binding to Gαo, FLNA-binding compound as agonist 1 μM: striatal membranes; for [35S]GTPγS binding to Gαo, FLNA-binding compound as agonist 1 μM + BFNA: 1 μM compound + 1 μM β-funaltrexamine; for [35S]GTPγS binding to Gαo, FLNA-binding compound as agonist 1 μM: 1 μM compound; for % DAMGO + BFNA: relative to DAMGO + BFNA; for % DAMGO (0.1 μM) / % DAMGO (1 μM): relative to DAMGO
# Description: To assess the μ opiate receptor (MOR) agonist activity of positive compounds from the FLNA screening, compounds were tested in a [^35S]GTPγS binding assay using striatal membranes.
# Striatal tissue was homogenized in 10 volumes of ice cold 25 mM HEPES buffer, pH 7.4, which contained 1 mM EGTA, 100 mM sucrose, 50 μg/ml leupeptin, 0.04 mM PMSF, 2 μg/ml soybean trypsin inhibitor and 0.2% 2-mercaptoethanol. The homogenates were centrifuged at 800×g for 5 minutes and the supernatants were centrifuged at 49,000×g for 20 minutes. The resulting pellets were suspended in 10 volume of reaction buffer, which contained 25 mM HEPES, pH 7.5, 100 mM NaCl, 50 μg/ml leupeptin, 2 μg/ml soybean trypsin inhibitor, 0.04 mM PMSF and 0.02% […].
# The resultant striatal membrane preparation (200 μg) was admixed and maintained (incubated) at 30° C. for 5 minutes in reaction buffer as above that additionally contained 1 mM MgCl2 and 0.5 nM [^35S]GTPγS (0.1 μCi/assay, PerkinElmer Life and Analytical Sciences) in a total volume of 250 μl and continued for 5 minutes in the absence or presence of 0.1-10 μM of an assayed compound of interest. The reaction was terminated by dilution with 750 μl of ice-cold reaction buffer that contained 20 mM MgCl2 and 1 mM EGTA and immediate centrifugation at 16,000×g for 5 minutes.
# The resulting pellet was solubilized by sonicating for 10 seconds in 0.5 ml of immunoprecipitation buffer containing 0.5% digitonin, 0.2% sodium cholate and 0.5% NP-40. Normal rabbit serum (1 μl) was added to 1 ml of lysate and incubated at 25° C. for 30 minutes. Nonspecific immune complexes were removed by incubation with 25 μl of protein A/G-conjugated agarose beads at 25° C. for 30 minutes followed by centrifugation at 5,000×g at 4° C. for 5 minutes. The supernatant was divided and separately incubated at 25° C. for 30 minutes with antibodies raised against Gao proteins (1:1,000 dilutions).
# The immunocomplexes so formed were collected by incubation at 25° C. for 30 minutes with 40 μl of agarose-conjugated protein A/G beads and centrifugation at 5,000×g at 4° C. for 5 minutes. The pellet was washed and suspended in buffer containing 50 mM Tris-HCl, pH 8.0, and 1% NP-40. The radioactivity in the suspension was determined by liquid scintillation spectrometry. […] DAMGO (H-Tyr-D-Ala-Gly-N-MePhe-Gly-OH; 1 or 10 μM) was used as a positive control.
# T1 sequence (P33535 whole entry): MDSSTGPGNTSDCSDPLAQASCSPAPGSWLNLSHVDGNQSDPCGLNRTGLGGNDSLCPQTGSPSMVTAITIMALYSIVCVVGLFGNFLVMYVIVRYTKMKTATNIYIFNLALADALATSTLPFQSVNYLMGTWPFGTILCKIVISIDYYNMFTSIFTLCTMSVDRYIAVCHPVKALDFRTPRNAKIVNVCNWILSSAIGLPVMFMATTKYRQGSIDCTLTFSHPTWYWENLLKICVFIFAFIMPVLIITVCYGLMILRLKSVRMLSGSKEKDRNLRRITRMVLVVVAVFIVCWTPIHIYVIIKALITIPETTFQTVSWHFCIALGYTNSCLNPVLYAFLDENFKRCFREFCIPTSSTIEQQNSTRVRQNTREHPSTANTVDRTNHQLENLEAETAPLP
SMILES,"[35S]GTPγS binding to Gαo, FLNA-binding compound as agonist 0.1 μM","[35S]GTPγS binding to Gαo, FLNA-binding compound as agonist 1 μM + BFNA","[35S]GTPγS binding to Gαo, FLNA-binding compound as agonist 1 μM",% DAMGO + BFNA,% DAMGO (0.1 μM),% DAMGO (1 μM)
CC1CCC(C(C)C)C(OCC(O)CN2CCC2)C1 (stereo not drawn) [Compound A0015],110.9%,62.5%,150.1%,,,
CC1CN(CC(O)COc2cc(F)cc(F)c2)CC(C)O1 (stereo not drawn) [Compound A0046],257.5%,140.0%,354.1%,189.4%,131.2%,128.3%
CC1CCC(C(C)C)C(OCC(O)CN2CC(C)CC(C)C2)C1 (stereo not drawn) [Compound A0008],163.8%,133.9%,235.0%,,,
CC1CCC(C(C)C)C(OCC(O)CN2CCCN(C)CC2)C1 (stereo not drawn) [Compound A0010],277.2%,190.3%,319.0%,,,
CC1CCC(C(C)C)C(OCC(O)CN2CC(C)OC(C)C2)C1 (stereo not drawn) [Compound A0032-1],187.4%,224.5%,324.5%,303.8%,95.5%,117.6%
CC1CCC(C(C)C)C(OCC(O)CN2CCN(CCN3CCCCC3)CC2)C1 (stereo not drawn) [Compound A0031],178.2%,150.9%,297.0%,,,
CC1CCC(C(C)C)C(OCC(CN2CC(C)OC(C)C2)NCc2ccccc2)C1 (stereo not drawn) [Compound A0033],155.8%,118.2%,254.6%,,,
Cc1cccc(OCC(O)CN2CC(C)OC(C)C2)c1 (stereo not drawn) [Compound A0030],133.4%,165.2%,287.8%,,,
CC1CN(CC(O)COc2cccc(N(C)C)c2)CC(C)O1 (stereo not drawn) [Compound A0042],147.5%,89.5%,233.1%,,,
COc1ccc(OCC(O)CN2CCOc3ccccc32)cc1 (stereo not drawn) [Compound A0076],79.8%,41.2%,172.6%,119.4%,46.4%,78.6%
CN(C)c1cccc(OCC(O)CN2CCc3ccccc3C2)c1 (stereo not drawn) [Compound A0050],151.0%,81.0%,189.3%,,,
CC1CCN(CC(O)COC2CC(C)CCC2C(C)C)CC1 (stereo not drawn) [Compound A0006],170.0%,18.2%,190.9%,,,
CC1CCC(C)C(OCC(O)CN2CC(C)OC(C)C2)C1 (stereo not drawn) [Compound A0022],154.1%,28.0%,216.0%,,,
CC1CCC(C(C)C)C(OCC(O)CN2CCCCCCC2)C1 (stereo not drawn) [Compound A0014],147.0%,140.8%,174.9%,,,
CC1CCC(C(C)C)C(OCC(O)CN2CCCCCC2)C1 (stereo not drawn) [Compound A0013],102.1%,86.1%,164.8%,,,
OC(COc1cccc(F)c1)CN1CCc2ccccc2C1 (stereo not drawn) [Compound A0055],89.8%,33.5%,195.2%,,,
CCN(CC)CC(O)COC1CC(C)CCC1C(C)C (stereo not drawn) [Compound A0032],226.9%,133.0%,257.8%,,,
CC1CN(CC(O)COc2ccccc2Br)CC(C)O1 (stereo not drawn) [Compound A0043],183.3%,89.1%,223.8%,,,
CC1CN(CC(O)COC2CCCCC2)CC(C)O1 (stereo not drawn) [Compound A0017],161.9%,65.2%,246.0%,,,
CC(=O)c1ccc(OCC(O)CN2CC(C)OC(C)C2)cc1 (stereo not drawn) [Compound A0044],176.2%,134.7%,209.1%,,,
CC1CCC(C(C)C)C(OCC(O)CN2CCCCC2)C1 (stereo not drawn) [Compound A0005],179.7%,23.5%,239.2%,,,
COc1ccc(OCC(O)CN2CCc3ccccc3C2)cc1 (stereo not drawn) [Compound A0053],78.5%,15.1%,118.2%,,,
CC1CCC(C(C)C)C(OCC(O)CN2CCc3ccccc3C2)C1 (stereo not drawn) [Compound A0040],46.1%,16.7%,149.0%,,,
CC1CCC(C(C)C)C(OCC(O)Cn2cccc2)C1 (stereo not drawn) [Compound A0038],176.7%,107.0%,234.5%,,,
COc1ccc(OCC(O)CN2CC(C)OC(C)C2)cc1 (stereo not drawn) [Compound A0048],233.7%,167.2%,302.9%,,,
CC1CCC(C(C)C)C(OCC(O)Cn2ccc3ccccc32)C1 (stereo not drawn) [Compound A0078],250.5%,147.8%,289.9%,,,
CC1CN(CC(O)COc2ccc(Cl)cc2)CC(C)O1 (stereo not drawn) [Compound A0047],233.0%,116.5%,255.0%,,,
